Common to all, as to assay type: functional
Experiment [1] relates to Canis familiaris. Description: Gastric antisecretory activity was determined in food stimulated Pavlov dogs by intrapouch administration ig; Value ranges from 6.2-15.3. Particulars: Canis lupus familiaris.
The species entered for the next experiment is Rattus norvegicus. Description: Mucosal protective activity in rats was measured as minimum effective dose (MED); ig. The settings on record: po, read-out: MED.
The subject of experiment [2] is Canis familiaris. Description: Gastric antisecretory activity was determined in food stimulated Pavlov dogs by intrapouch administration ig; Value ranges from 0.017-0.032. Particulars: Canis lupus familiaris.

One may read the ED50 as the midpoint of the dose-response relation. Read a high ED50 as weaker potency.

`CCCCC(C)(O)C/C=C/[C@H]1[C@H](O)CC(=O)[C@@H]1CC/C=C(/F)CCC(=O)OC` (some centres undefined) showed an ED50 with Canis familiaris [1] of 9.7 µg/kg. Also, in the experiment listed under Rattus norvegicus, the minimal effective dose amounted to 50 µg/kg.
On to `CCCCC(C)(O)C/C=C/[C@H]1[C@H](O)CC(=O)[C@@H]1CC/C=C\CCC(=O)OC` (some centres undefined) [ENISOPROST], for which, in the experiment listed under Rattus norvegicus, the minimal effective dose is 1 µg/kg. It took a dose of 0.023 µg/kg to reach the 50% effect level in the experiment with Canis familiaris [2] (ED50).
